The values that follow come from US8642794B1, “Biosurfactant compounds produced by Aureobasidium pullulans” (Gyeongbuk Institute for Marine Bio-industry, priority 2012, dated 2014).

Structures are written as SMILES.

A short description of the data set: Surface tension measurement with a tensiometer (Sigma 700), aqueous solution dropped onto a hydrophobic film. It is filed as physicochemical. Particulars: at 1.0 mg/liter; water as control. As to the method:
The compounds L3-E3 and L3-E6 isolated in Examples 2 and 4, respectively, were dropped onto the surface of a hydrophobic film, and their surface tension was measured by using a tensiometer (Sigma 700 Tensiometer, KSV Instruments Ltd., Finland). Here, water was used as a control, and the change in surface tension was measured by using a microbial culture, L3-E3 and L3-E6.

Take `CCCCCC(O)CC(O)CC(=O)OC(CCCCC)CC(O)CC(=O)OC` (centres unmarked) [L3-E3]: the surface tension came out at 29.5 dyne/cm. Next, `CCCCCC(O)CC(O)CC(=O)OC(CCCCC)CCCC(=O)OC` (centres unmarked) [L3-E6]: 36.4 dyne/cm.
